Columns and labels:
Assay in all cases: Kinase selectivity, DiscoverX scanMAX Kinase assay panel (% control)
Type in all cases: binding
[1] = molecular target: T1, kinases of the scanMAX Kinase assay panel (Homo sapiens, UniProt P42680); details: kinase TEC; 1 uM in DMSO
T1 construct: purchased DiscoverX Co. (contract measurement) scanMAX Kinase assay panel
T1 sequence (P42680 1-631): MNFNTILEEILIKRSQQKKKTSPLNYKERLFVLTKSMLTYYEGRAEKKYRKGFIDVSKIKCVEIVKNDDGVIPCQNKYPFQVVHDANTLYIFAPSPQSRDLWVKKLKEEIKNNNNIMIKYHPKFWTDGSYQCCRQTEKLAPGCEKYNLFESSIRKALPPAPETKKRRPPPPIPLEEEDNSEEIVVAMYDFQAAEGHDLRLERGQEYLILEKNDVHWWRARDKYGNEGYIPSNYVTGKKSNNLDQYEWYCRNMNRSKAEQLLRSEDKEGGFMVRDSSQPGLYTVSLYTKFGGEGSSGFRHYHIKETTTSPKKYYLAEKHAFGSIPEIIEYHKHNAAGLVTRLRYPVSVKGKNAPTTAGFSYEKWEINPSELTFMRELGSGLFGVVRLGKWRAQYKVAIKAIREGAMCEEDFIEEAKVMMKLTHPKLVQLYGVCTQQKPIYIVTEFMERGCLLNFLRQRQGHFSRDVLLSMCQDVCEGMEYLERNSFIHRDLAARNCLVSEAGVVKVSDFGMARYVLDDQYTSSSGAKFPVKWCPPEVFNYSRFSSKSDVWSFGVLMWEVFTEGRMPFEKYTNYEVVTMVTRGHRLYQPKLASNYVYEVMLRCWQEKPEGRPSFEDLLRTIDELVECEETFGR
Procedure, shortened: (§1)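 Read-out is % control, normalised so a positive-control compound sits at 0% and DMSO at 100%: (test − positive)/(negative − positive)×100. Each kinase received the compound at 1 uM in DMSO. A value below 35% counts as activity.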

[2] = molecular target: T2, kinases of the scanMAX Kinase assay panel (Homo sapiens, UniProt Q96NX5); details: CAMK1G; 1 uM
T2 construct: purchased DiscoverX Co. (contract measurement) scanMAX Kinase assay panel
T2 sequence (Q96NX5 whole entry): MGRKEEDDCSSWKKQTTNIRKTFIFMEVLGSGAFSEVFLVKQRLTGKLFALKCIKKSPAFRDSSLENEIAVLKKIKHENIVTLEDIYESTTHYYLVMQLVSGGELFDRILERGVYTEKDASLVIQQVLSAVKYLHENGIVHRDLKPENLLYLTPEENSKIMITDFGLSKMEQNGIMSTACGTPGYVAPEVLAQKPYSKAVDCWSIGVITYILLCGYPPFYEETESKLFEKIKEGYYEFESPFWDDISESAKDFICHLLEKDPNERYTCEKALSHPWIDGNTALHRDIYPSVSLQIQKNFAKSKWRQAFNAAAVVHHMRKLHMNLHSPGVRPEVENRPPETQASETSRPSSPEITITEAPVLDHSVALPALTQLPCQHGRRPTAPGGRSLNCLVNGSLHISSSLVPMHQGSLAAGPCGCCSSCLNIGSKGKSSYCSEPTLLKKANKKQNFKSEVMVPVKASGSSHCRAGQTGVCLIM
Procedure, shortened: as §1

[3] = molecular target: T3, kinases of the scanMAX Kinase assay panel (Homo sapiens, UniProt Q8TD08); details: ERK8; 1 uM
T3 construct: purchased DiscoverX Co. (contract measurement) scanMAX Kinase assay panel
T3 sequence (Q8TD08 1-544): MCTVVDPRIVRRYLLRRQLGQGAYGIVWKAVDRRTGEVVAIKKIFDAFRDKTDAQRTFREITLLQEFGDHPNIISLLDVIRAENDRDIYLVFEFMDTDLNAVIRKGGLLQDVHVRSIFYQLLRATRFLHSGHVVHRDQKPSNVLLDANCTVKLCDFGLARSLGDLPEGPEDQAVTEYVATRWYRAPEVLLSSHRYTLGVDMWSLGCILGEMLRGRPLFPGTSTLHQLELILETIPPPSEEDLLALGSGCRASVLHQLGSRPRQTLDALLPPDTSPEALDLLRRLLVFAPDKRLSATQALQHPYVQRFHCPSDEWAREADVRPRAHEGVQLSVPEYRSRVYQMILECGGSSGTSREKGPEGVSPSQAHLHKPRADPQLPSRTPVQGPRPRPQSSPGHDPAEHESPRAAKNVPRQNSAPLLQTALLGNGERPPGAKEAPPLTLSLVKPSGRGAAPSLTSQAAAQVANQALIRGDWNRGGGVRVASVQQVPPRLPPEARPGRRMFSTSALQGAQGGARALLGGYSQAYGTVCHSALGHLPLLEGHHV
Procedure, shortened: as §1

[4] = molecular target: T4, kinases of the scanMAX Kinase assay panel (Homo sapiens, UniProt Q9H2K8); details: kinase TAOK3; 1 uM in DMSO
T4 construct: purchased DiscoverX Co. (contract measurement) scanMAX Kinase assay panel
T4 sequence (Q9H2K8 1-898): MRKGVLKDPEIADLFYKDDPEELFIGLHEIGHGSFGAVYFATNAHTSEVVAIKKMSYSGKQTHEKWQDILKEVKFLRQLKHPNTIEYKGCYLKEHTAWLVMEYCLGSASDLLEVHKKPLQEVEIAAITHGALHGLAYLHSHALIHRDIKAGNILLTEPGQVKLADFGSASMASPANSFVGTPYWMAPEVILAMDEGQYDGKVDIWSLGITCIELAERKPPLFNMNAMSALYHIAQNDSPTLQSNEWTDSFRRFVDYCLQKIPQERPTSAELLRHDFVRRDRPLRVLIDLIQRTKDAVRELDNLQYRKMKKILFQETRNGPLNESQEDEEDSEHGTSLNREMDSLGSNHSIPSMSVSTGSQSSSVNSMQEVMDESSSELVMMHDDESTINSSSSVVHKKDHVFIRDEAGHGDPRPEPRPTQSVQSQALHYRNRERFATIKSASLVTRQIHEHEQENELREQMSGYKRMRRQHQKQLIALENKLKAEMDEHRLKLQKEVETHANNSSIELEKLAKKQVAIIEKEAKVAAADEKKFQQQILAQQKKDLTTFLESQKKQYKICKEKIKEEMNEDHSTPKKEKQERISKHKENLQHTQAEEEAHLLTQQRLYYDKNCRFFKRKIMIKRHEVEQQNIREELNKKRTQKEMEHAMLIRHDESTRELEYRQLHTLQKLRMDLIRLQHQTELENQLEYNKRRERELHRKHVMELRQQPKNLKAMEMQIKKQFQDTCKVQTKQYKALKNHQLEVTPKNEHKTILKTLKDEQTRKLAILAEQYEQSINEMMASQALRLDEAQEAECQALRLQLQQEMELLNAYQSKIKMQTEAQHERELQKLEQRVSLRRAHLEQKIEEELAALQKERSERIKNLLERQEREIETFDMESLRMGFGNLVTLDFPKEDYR
Procedure, shortened: as §1

[5] = molecular target: T5, kinases of the scanMAX Kinase assay panel (Homo sapiens, UniProt Q13233); details: MAP3K1; 1 uM
T5 construct: purchased DiscoverX Co. (contract measurement) scanMAX Kinase assay panel
T5 sequence (Q13233 whole entry): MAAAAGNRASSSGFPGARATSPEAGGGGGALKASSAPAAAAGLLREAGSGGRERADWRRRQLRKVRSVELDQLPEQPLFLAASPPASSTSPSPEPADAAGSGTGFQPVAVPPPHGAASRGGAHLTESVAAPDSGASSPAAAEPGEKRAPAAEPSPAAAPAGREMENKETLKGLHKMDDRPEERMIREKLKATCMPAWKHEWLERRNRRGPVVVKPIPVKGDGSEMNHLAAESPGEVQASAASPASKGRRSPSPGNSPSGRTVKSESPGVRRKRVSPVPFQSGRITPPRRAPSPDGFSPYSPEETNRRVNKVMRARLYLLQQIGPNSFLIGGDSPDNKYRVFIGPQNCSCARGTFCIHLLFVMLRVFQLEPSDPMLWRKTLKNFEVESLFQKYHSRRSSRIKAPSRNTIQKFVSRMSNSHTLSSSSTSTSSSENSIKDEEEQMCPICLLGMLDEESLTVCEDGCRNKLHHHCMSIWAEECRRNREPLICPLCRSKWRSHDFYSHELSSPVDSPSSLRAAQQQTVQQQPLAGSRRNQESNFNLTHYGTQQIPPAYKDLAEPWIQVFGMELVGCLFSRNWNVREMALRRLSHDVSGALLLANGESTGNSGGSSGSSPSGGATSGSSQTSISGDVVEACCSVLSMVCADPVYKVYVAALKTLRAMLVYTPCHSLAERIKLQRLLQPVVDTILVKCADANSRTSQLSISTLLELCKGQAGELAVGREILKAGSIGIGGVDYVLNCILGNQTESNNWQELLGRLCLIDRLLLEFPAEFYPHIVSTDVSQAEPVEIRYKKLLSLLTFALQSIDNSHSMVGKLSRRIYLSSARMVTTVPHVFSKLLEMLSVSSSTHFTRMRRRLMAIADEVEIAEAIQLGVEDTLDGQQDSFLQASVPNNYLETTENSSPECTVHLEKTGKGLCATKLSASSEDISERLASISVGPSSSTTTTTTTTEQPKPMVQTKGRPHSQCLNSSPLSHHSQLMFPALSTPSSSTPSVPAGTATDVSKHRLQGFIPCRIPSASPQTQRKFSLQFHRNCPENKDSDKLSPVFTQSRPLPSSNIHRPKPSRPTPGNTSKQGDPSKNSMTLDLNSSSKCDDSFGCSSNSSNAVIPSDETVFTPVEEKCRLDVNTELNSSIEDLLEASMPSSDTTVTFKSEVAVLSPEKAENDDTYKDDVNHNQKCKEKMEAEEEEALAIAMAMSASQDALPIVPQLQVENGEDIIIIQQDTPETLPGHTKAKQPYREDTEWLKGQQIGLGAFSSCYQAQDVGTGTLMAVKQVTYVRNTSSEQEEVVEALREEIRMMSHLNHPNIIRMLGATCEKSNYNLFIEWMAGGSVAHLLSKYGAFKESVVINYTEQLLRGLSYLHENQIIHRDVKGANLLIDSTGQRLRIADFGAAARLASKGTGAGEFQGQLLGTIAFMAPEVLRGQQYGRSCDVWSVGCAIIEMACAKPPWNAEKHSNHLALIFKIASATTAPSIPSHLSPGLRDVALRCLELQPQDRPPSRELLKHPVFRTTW
Procedure, shortened: as §1

[6] = molecular target: T6, kinases of the scanMAX Kinase assay panel (Homo sapiens, UniProt P14616); details: INSRR; 1 uM
T6 construct: purchased DiscoverX Co. (contract measurement) scanMAX Kinase assay panel
T6 sequence (P14616 27-1297): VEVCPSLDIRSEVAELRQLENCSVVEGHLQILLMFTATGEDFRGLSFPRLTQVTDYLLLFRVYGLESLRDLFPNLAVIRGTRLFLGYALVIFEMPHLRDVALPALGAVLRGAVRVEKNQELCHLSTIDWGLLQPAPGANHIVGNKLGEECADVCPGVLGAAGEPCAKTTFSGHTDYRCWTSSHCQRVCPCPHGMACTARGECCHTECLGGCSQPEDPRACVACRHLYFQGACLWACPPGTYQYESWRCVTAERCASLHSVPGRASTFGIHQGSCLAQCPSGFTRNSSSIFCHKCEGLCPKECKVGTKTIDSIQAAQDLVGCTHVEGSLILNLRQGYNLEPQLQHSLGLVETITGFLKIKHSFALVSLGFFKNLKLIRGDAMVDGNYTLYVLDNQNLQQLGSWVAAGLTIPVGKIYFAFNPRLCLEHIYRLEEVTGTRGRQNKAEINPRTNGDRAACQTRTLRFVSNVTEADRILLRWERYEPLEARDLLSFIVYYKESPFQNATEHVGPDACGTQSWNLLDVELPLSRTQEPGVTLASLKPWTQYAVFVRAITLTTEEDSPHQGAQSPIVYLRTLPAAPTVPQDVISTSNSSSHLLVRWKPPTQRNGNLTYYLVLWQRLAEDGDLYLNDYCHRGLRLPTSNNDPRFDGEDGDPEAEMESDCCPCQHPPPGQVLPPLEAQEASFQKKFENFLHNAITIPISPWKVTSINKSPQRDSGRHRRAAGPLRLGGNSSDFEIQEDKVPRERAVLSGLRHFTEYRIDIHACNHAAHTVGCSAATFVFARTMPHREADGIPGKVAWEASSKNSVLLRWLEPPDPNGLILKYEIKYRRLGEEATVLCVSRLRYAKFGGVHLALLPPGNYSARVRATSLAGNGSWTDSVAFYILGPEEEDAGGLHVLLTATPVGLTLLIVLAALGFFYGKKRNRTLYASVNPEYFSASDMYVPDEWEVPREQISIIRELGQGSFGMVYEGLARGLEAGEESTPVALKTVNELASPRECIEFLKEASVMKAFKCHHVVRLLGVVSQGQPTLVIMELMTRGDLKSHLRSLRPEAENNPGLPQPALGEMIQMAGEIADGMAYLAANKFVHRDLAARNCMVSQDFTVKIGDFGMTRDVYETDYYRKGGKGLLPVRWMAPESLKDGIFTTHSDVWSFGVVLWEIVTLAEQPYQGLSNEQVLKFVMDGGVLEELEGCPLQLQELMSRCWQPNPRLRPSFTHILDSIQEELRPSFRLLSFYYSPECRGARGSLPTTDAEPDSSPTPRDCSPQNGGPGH
Procedure, shortened: as §1

Row | Compound | remaining binding at 1 µM [1] [%] | remaining binding at 1 µM [2] [%] | remaining binding at 1 µM [3] [%] | remaining binding at 1 µM [4] [%] | remaining binding at 1 µM [5] [%] | remaining binding at 1 µM [6] [%]
1 | CCNc1nc(Nc2ccc(C(=O)N3CCC(N4CCOCC4)CC3)cc2OC)nc2[nH]cc(C(F)(F)F)c12 [Example 104, (4-((4-(ethylamino)-5-(trifluoromethyl)-7H-pyrrolo[2,3-d]pyrimidine-2-yl)amino)-3-methoxyphenyl)(4-morpholinopiperidine-1-yl)methanone] | 86 | 94 | 100 | 81 | 83 | 3.2
2 | CC1(Nc2nc(Nc3cnn([C@H]4CCN(C5COC5)C[C@@H]4F)c3Cl)nc3[nH]cc(C#N)c23)CC1 [Example 52, 2-((5-chloro-1-((3S,4S)-3-fluoro-1-(oxetane-3-yl)piperidine-4-yl)-1H-pyrazole-4-yl)amino)((1-methylcyclopropyl)amino)-7H-pyrrolo[2,3-d]pyrimidine-5-carbonitrile] | 24 | 34 | 62 | 8.6 | 81 | 6.5
3 | CNc1nc(Nc2ccc(C(=O)N3CCOCC3)cc2OC)nc2[nH]cc(C#N)c12 [Example 1, 2-((2-methoxy-4-(morpholine-4-carbonyl)phenyl)amino)-4-(methylamino)-7H-pyrrolo[2,3-d]pyrimidine-5-carbonitrile] | 100 | 74 | 100 | 81 | 100 | 61

From patent US11208412B2 (DAEGU-GYEONGBUK MEDICAL INNOVATION FOUNDATION, priority 2017, dated 2021)
